This note sets out measurements from article PMC4543428 (European journal of pharmacology, 2015).

Counter-ions that a name gives are not always drawn. Like-named read-outs stand apart in the source and are kept apart here. Some results are limits rather than exact numbers.

Assay [1] has as its target T1, sigma1 receptor (Mus musculus, UniProt O55242). To be noted: for Sigma1 nH (pseudo-Hill slope): 1.0 nM [3H](+)-pentazocine, 6 h, 37 °C.
The target of assay [2] is T2, sigma2 receptor (Mus musculus, UniProt Q8VD00).
T2 sequence (Q8VD00 1-176): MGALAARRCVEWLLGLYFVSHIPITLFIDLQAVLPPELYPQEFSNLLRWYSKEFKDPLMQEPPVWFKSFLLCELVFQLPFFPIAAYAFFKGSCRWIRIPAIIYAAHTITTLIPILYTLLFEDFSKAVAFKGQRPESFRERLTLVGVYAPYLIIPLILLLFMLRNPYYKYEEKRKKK
In words: Sigma2 receptor competition binding against [3H]DTG /. As to conditions: for Sigma2 nH (pseudo-Hill slope): 3.0 nM [3H]DTG / 500 nM (+)-pentazocine, 60 min, 25 °C; for Selectivity Ki Ratio σ2/σ1: sigma2 Ki / sigma1 Ki.

Assay [3] deals with T1, sigma1 receptor. Briefly: biochemical.
Assay [4] addresses T1, sigma1 receptor. Format: in vivo. As to conditions: for ED50: mouse, ip.
The subject of assay [5] is sigma2 receptor. Briefly: [3H]DTG association kinetics and homologous. As to conditions: 25 °C; 3.0 nM; 500 nM (+)-pentazocine. Format: binding, mouse.

Usually Ki stands for a measure of affinity in units of concentration, obtained from inhibition or displacement. High values mean lower affinity, low ones higher affinity. Broadly, the ED50 is the dose that gives a 50% effect, or the effect in half of the subjects. By IC50 is commonly meant the concentration needed to halve the response being measured. A higher IC50 goes with lower potency.

T1 sequence (O55242 whole entry): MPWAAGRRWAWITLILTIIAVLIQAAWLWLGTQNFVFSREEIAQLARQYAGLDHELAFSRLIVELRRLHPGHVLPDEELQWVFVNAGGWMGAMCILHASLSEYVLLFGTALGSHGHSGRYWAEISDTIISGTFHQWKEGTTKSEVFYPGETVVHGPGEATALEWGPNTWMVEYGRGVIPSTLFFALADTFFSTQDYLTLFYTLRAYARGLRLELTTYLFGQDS

For the compound `C=CCN1CCC2(C)c3cc(O)ccc3CC1C2C` (single isomer, unassigned; (+)) [(+)-NANM, (+)-N-allylnormetazocine], the “Sigma1 nH (pseudo-Hill slope)” value at sigma1 receptor [1] (mouse lung membranes) is 1.04 ± 0.10. Besides, on sigma2 receptor [2] (mouse lung membranes), the “Sigma2 nH (pseudo-Hill slope)” value is given as 1.63 ± 0.35 and the “Selectivity Ki Ratio σ2/σ1” value is 1162.

`C=CCN1CCC2(C)c3cc(O)ccc3CC1C2C` (single isomer, unassigned; (-)) [(−)-NANM, (−)-N-allylnormetazocine]: the “Sigma1 nH (pseudo-Hill slope)” value at sigma1 receptor [1] (mouse lung membranes) is 1.48 ± 0.28. Besides, at sigma2 receptor [2] (mouse lung membranes), the “Sigma2 nH (pseudo-Hill slope)” value is 0.85 ± 0.09 and the “Selectivity Ki Ratio σ2/σ1” value amounted to 2.0.

`Cc1ccc2c(c1)C1CN(C)CCC1N2C(=O)CSc1nnnn1-c1ccc(Cl)cc1` (stereo not drawn) [AG-205, Z-2-[[1-(4-chlorophenyl)-1H-tetrazol-5-yl]thio]-1-(1,2,3,4,4a,9b-hexahydro-2,8-dimethyl-5H-pyrido[4,3-b]indol-5-yl)ethanone]: on sigma1 receptor [1] (mouse lung membranes), the “Sigma1 nH (pseudo-Hill slope)” value amounted to 1.11 ± 0.12. In addition, the “residual specific [3H](+)-pentazocine binding at highest concentration” value on sigma1 receptor [1] (0.02 M, the highest concentration used) is reported as “approximately 10%”. Moreover, at sigma2 receptor [2] (mouse lung membranes), the “Sigma2 nH (pseudo-Hill slope)” value stood at 1.06 ± 0.20 and the “Selectivity Ki Ratio σ2/σ1” value turned out to be 0.07. Besides, the “higher apparent affinity for sigma2 sites over sigma1 sites” value at sigma2 receptor [2] (mouse lung membranes, from Ki values) is 14 fold.

`Cc1ccccc1NC(=N)Nc1ccccc1C` [DTG, 1,3-di(2-tolyl)guanidine] came in with a Ki on sigma1 receptor [3] of 75.2 ± 8.01 nM. Besides, the “Sigma1 nH (pseudo-Hill slope)” value on sigma1 receptor [1] (mouse lung membranes) was 1.21 ± 0.09. For the same compound, the “Sigma2 nH (pseudo-Hill slope)” value at sigma2 receptor [2] (mouse lung membranes) is 0.90 ± 0.16.

Take `COc1ccc2c(c1)[C@]13CCCC[C@@H]1[C@H](C2)N(C)CC3` [Dextromethorphan, dextromethorphan hydrobromide]: the Ki amounted to 71.7 ± 6.56 nM at sigma1 receptor [3] and 4200 ± 664 nM at sigma2 receptor [2]. Also, the “sigma1 receptor occupancy across tissues at higher doses” value on sigma1 receptor [4] (31.6 – 100 µmol / kg (12 – 37 mg / kg)) was “fully occupied”. Moreover, the ED50 at sigma1 receptor [4] (read-out: ED50, inhibition of specific radioligand binding in heart) is 1.2 µmol/kg; on sigma1 receptor [4] (read-out: ED50, inhibition of specific radioligand binding in lung), 1.2 µmol/kg; at sigma1 receptor [4] (read-out: ED50, inhibition of specific radioligand binding in spleen) it was 3.5 µmol/kg; at sigma1 receptor [4] (read-out: ED50 values, range across lung, heart, spleen and brain) it was 1.1 to 4.4 µmol/kg; at sigma1 receptor [4] (read-out: ED50 values, range across tissues) it was 0.4 to 1.6 mg/kg; on sigma1 receptor [4] (read-out: lung ED50), 0.4 mg/kg. For the same compound, the “Sigma1 nH (pseudo-Hill slope)” value at sigma1 receptor [1] (mouse lung membranes) is recorded as 0.86 ± 0.12. Moreover, the “Hill slope in the presence of phenytoin” value on sigma1 receptor [1] (phenytoin 1.0 mM in NaOH vehicle, mouse lung membranes) was determined as 1.2 ± 0.2. Moreover, the “shift to higher apparent sigma1 affinity caused by phenytoin” value at sigma1 receptor [1] (phenytoin 1.0 mM, mouse lung membranes) is on record as 5 fold. Moreover, on sigma1 receptor [1] (vehicle only (50 µL, 0.15 M NaOH), mouse lung membranes), the “Hill slope with vehicle only” value was 1.3 ± 0.2. At sigma2 receptor [2], this compound came in with a half-inhibitory concentration (IC50) of 4510 ± 714 nM. For the same compound, the “Sigma2 nH (pseudo-Hill slope)” value at sigma2 receptor [2] (mouse lung membranes) was found to be 1.22 ± 0.12. At sigma2 receptor [2] (mouse lung membranes), the “Selectivity Ki Ratio σ2/σ1” value worked out at 58.

At sigma1 receptor [3], `CC(C(O)c1ccc(O)cc1)N1CCC(Cc2ccccc2)CC1` (stereo not drawn) [Ifenprodil, ifenprodil (+)-tartrate] registered a Ki of 16.4 ± 1.89 nM. Also, the “Sigma1 nH (pseudo-Hill slope)” value on sigma1 receptor [1] (mouse lung membranes) is reported as 1.06 ± 0.11. Also, on sigma2 receptor [2], the concentration for half-maximal inhibition (IC50) amounted to 2.4 ± 0.27 nM and the Ki is 2.18 ± 0.24 nM. Also, at sigma2 receptor [2] (mouse lung membranes), the “Sigma2 nH (pseudo-Hill slope)” value is recorded as 0.88 ± 0.10 and the “Selectivity Ki Ratio σ2/σ1” value was 0.1.

With `Cc1ccccc1NC(=N)Nc1ccccc1C` [[^3H]DTG, [^3H]1,3-di(2-tolyl)guanidine], the “time to steady state of specific binding” value with sigma2 receptor [5] is at most 2 min.

For `COc1ccc(CCN2CCN(C/C=C/I)CC2)cc1OC` [[^125I]E-IA-DM-PE-PIPZE, E-N-1-(3´-iodoallyl)-N´-4-(3´´,4´´-dimethoxyphenethyl)-piperazine], the “specific binding in vivo in brain” value on sigma1 receptor [4] (mouse brain, non-specific defined by BD1063) stood at 85%. For the same compound, the “specific binding in vivo in heart” value on sigma1 receptor [4] (mouse heart, non-specific defined by BD1063) is 50%. For the same compound, the “specific binding in vivo in lung” value at sigma1 receptor [4] (mouse lung, non-specific defined by BD1063 5.0 µmol / kg i.v.) is given as 68%. Moreover, the “specific binding in vivo in spleen” value at sigma1 receptor [4] (mouse spleen, non-specific defined by BD1063) worked out at 66%.

As for (−)-cocaine hydrochloride, at sigma2 receptor [2] (mouse lung membranes), the “Sigma2 nH (pseudo-Hill slope)” value came to 0.93 ± 0.09.
